US11000033B2, “Ketone or oxime compound, and herbicide” (NISSAN CHEMICAL CORPORATION, priority 2014, dated 2021)

Assays:
Assay type in all cases: in vivo
Chenopodium album [1] = assay: Test Example 4: herbicidal effect by soil treatment (symbol O); settings: for O: Chenopodium album, herbicidal effect grade: 320 g/ha; for Herbicidal effect grade, O: Chenopodium album: application herbicide amount 320 g/ha
Method in brief: (§1)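 Seeds were sown in sterilized diluvial soil, covered with about 1.5 cm of soil, and the soil surface was sprayed with a water-diluted emulsion of the compound at a predetermined rate. Plants grew in a greenhouse at 25° C. to 30° C.; effects were scored visually 3 weeks after application.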

rapeseed = assay: Test Example 4: effect on crop by soil treatment (symbol g); settings: for g: rapeseed, effect grade on crop: 320 g/ha; for Effect on crop grade, g: rapeseed: application herbicide amount 320 g/ha
Method in brief: (§2)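 Crop seeds, among them rice, wheat, beet and rapeseed, were sown in sterilized diluvial soil and covered with about 1.5 cm of soil. Boxes were kept in a greenhouse at 25° C. to 30° C. for plant growth.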

Monochoria vaginalis = assay: Test Example 1: herbicidal activity, application before weed generation in submerged conditions (symbol C); settings: application herbicide amount 320 g/ha
Method in brief: (§3)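 Weeds are sown into submerged alluvial soil alongside transplanted 2.5-leaf rice, and the compound, as an emulsion diluted to a set rate, is applied onto the water before emergence. Rating on the 0–5 herbicidal-ratio scale follows 3 weeks of greenhouse growth at 25–30 °C.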

Galium spurium = assay: Test Example 4: herbicidal effect by soil treatment (symbol Q); settings: for Q: Galium spurium, herbicidal effect grade: 320 g/ha; for Herbicidal effect grade, Q: Galium spurium: application herbicide amount 320 g/ha
Method in brief: as §1

Stellaria media = assay: Test Example 5: herbicidal effect by foliage application, plastic box (symbol P); settings: 320 g/ha, 3 weeks after application
Method in brief: (§4)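 Sowing in sterilized diluvial soil, 14 days' greenhouse growth at 25° C. to 30° C., then uniform small-sprayer foliar application of aqueous emulsion dilution; plants scored three weeks afterwards.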

wheat [2] = assay: Test Example 5: effect on crop by foliage application, plastic box (symbol e); settings: 320 g/ha, 3 weeks after application
Method in brief: (§5)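 Diluvial soil, sterilized and boxed (21 × 13 × 7 cm), received spot-sown seed covered by about 1.5 cm soil; plants were then greenhouse-grown at 25–30° C.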

rice plant = assay: Test Example 5: effect on crop by foliage application, plastic box (symbol b); settings: 320 g/ha, 3 weeks after application
Method in brief: as §5

Avena fatua = assay: Test Example 5: herbicidal effect by foliage application, plastic box (symbol I); settings: 320 g/ha, 3 weeks after application
Method in brief: as §4

Chenopodium album [3] = assay: Test Example 5: herbicidal effect by foliage application, plastic box (symbol O); settings: 320 g/ha, 3 weeks after application
Method in brief: as §4

Amaranthus retroflexus = assay: Test Example 4: herbicidal effect by soil treatment (symbol N); settings: for N: Amaranthus retroflexus, herbicidal effect grade: 320 g/ha; for Herbicidal effect grade, N: Amaranthus retroflexus: application herbicide amount 320 g/ha
Method in brief: as §1

Abutilon theophrasti = assay: Test Example 5: herbicidal effect by foliage application, plastic box (symbol M); settings: 320 g/ha, 3 weeks after application
Method in brief: as §4

wheat [4] = assay: Test Example 4: effect on crop by soil treatment (symbol e); settings: for e: wheat, effect grade on crop: 320 g/ha; for Effect on crop grade, e: wheat: application herbicide amount 320 g/ha
Method in brief: as §2

rice = assay: Test Example 4: effect on crop by soil treatment (symbol b); settings: for b: directly sowed rice plant, effect grade on crop: 320 g/ha; for Effect on crop grade, b: directly sowed rice plant: application herbicide amount 320 g/ha
Method in brief: as §2

[5] = system: Echinochloa oryzacola Vasing.; assay: Test Example 1: herbicidal activity, application before weed generation in submerged conditions (symbol A); settings: application herbicide amount 320 g/ha
Method in brief: as §3

Lolium multiflorum Lam. = assay: Test Example 4: herbicidal effect by soil treatment (symbol K); settings: for K: Lolium multiflorum Lam., herbicidal effect grade: 320 g/ha; for Herbicidal effect grade, K: Lolium multiflorum Lam.: application herbicide amount 320 g/ha
Method in brief: as §1

Cyperus difformis = assay: Test Example 3: herbicidal effect by foliage application, Wagner pot (symbol E); settings: application herbicide amount 320 g/ha; for E herbicidal effect grade: Table 24
Method in brief: (§6)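 Rating at 3 weeks post-spray, by defined criteria. Treatment: emulsion diluted with water to a predetermined amount, applied evenly to foliage of 14-day-old plants raised in alluvial soil flooded 0.1–0.5 cm deep at 25–30 °C, rice co-sown.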

Leptochloa chinensis = assay: Test Example 3: herbicidal effect by foliage application, Wagner pot (symbol D); settings: application herbicide amount 320 g/ha; for D (Leptochloa chinensis) herbicidal effect grade: Table 24
Method in brief: as §6

beet = assay: Test Example 4: effect on crop by soil treatment (symbol f); settings: for f: beet, effect grade on crop: 320 g/ha; for Effect on crop grade, f: beet: application herbicide amount 320 g/ha
Method in brief: as §2

Apera spica-venti = assay: Test Example 5: herbicidal effect by foliage application, plastic box (symbol L); settings: 320 g/ha, 3 weeks after application
Method in brief: as §4

Row | Compound | O: Chenopodium album, herbicidal effect grade (Chenopodium album [1]) | g: rapeseed, effect grade on crop (rapeseed) | Herbicidal effect grade, C: Monochoria vaginalis (Monochoria vaginalis) | Q: Galium spurium, herbicidal effect grade (Galium spurium) | P: Stellaria media, herbicidal effect (criteria 0-5) (Stellaria media) | e: wheat, effect on crop (criteria 0-5) (wheat [2]) | b: directly sowed rice plant, effect on crop (criteria 0-5) (rice plant) | I: Avena fatua, herbicidal effect (criteria 0-5) (Avena fatua) | O: Chenopodium album, herbicidal effect (criteria 0-5) (Chenopodium album [3]) | N: Amaranthus retroflexus, herbicidal effect grade (Amaranthus retroflexus) | M: Abutilon theophrasti, herbicidal effect (criteria 0-5) (Abutilon theophrasti) | e: wheat, effect grade on crop (wheat [4]) | b: directly sowed rice plant, effect grade on crop (rice) | Herbicidal effect grade, A: Echinochloa oryzacola Vasing. [5] | K: Lolium multiflorum Lam., herbicidal effect grade (Lolium multiflorum Lam.) | herbicidal effect on E, grade 0-5 (Cyperus difformis) | herbicidal effect on D (Leptochloa chinensis), grade 0-5 (Leptochloa chinensis) | f: beet, effect grade on crop (beet) | L: Apera spica-venti, herbicidal effect (criteria 0-5) (Apera spica-venti) | Herbicidal effect grade, O: Chenopodium album (Chenopodium album [1]) | also measured
1 | CON=C(C)CC1CC(OC(=O)CSc2ccccc2)=C(c2c(C)cc(C)cc2C)C1=O (stereo not shown) [1-134] | 0 (Herbicidal ratio of 5% or lower (almost no effect)) | 0 (Herbicidal ratio of 5% or lower (almost no effect)) | 1 (Herbicidal ratio of 5% or higher and lower than 20%) | 0 (Herbicidal ratio of 5% or lower (almost no effect)) | 2 (Herbicidal ratio of 20% or higher and lower than 40%) | 5 (Herbicidal ratio of 90% or more (almost completely withered)) | 5 (Herbicidal ratio of 90% or more (almost completely withered)) | 5 (Herbicidal ratio of 90% or more (almost completely withered)) | 4 (Herbicidal ratio of 70% or higher and lower than 90%) | 4 (Herbicidal ratio of 70% or higher and lower than 90%) | 2 (Herbicidal ratio of 20% or higher and lower than 40%) | 2 (Herbicidal ratio of 20% or higher and lower than 40%) | 5 (Herbicidal ratio of 90% or more (almost completely withered)) | 5 (Herbicidal ratio of 90% or more (almost completely withered)) | 5 (Herbicidal ratio of 90% or more (almost completely withered)) | 5 (Herbicidal ratio of 90% or more (almost completely withered)) | 5 (Herbicidal ratio of 90% or more (almost completely withered)) | 0 (Herbicidal ratio of 5% or lower (almost no effect)) | 5 (Herbicidal ratio of 90% or more (almost completely withered)) | – | –
2 | CC(CC1CC(OC(=O)COc2ccccc2)=C(c2c(C)cc(-c3ccc(Cl)cc3)cc2C)C1=O)=NOCC(F)(F)F (mixture of isomers) [9-027] | – | – | – | – | – | – | – | – | – | – | – | – | – | – | – | – | – | – | – | 3 (Herbicidal ratio of 40% or higher and lower than 70%) | Effect on crop grade, g: rapeseed (rapeseed): 1 (Herbicidal ratio of 5% or higher and lower than 20%); C (Monochoria vaginalis) herbicidal effect grade (Monochoria vaginalis): 1 (Herbicidal ratio of 5% or higher and lower than 20%); Herbicidal effect grade, Q: Galium spurium (Galium spurium): 0 (Herbicidal ratio of 5% or lower (almost no effect)); P: Stellaria media, herbicidal effect grade (Stellaria media): 3 (Herbicidal ratio of 40% or higher and lower than 70%); e: wheat, effect on crop grade (wheat [2]): 4 (Herbicidal ratio of 70% or higher and lower than 90%); b: directly sowed rice plant, effect on crop grade (rice plant): 5 (Herbicidal ratio of 90% or more (almost completely withered)); I: Avena fatua, herbicidal effect grade (Avena fatua): 5 (Herbicidal ratio of 90% or more (almost completely withered)); O: Chenopodium album, herbicidal effect grade (Chenopodium album [3]): 2 (Herbicidal ratio of 20% or higher and lower than 40%); Herbicidal effect grade, N: Amaranthus retroflexus (Amaranthus retroflexus): 3 (Herbicidal ratio of 40% or higher and lower than 70%); M: Abutilon theophrasti, herbicidal effect grade (Abutilon theophrasti): 0 (Herbicidal ratio of 5% or lower (almost no effect)); Effect on crop grade, e: wheat (wheat [4]): 2 (Herbicidal ratio of 20% or higher and lower than 40%); Effect on crop grade, b: directly sowed rice plant (rice): 5 (Herbicidal ratio of 90% or more (almost completely withered)); A (Echinochloa oryzacola Vasing.) herbicidal effect grade [5]: 5 (Herbicidal ratio of 90% or more (almost completely withered)); Herbicidal effect grade, K: Lolium multiflorum Lam. (Lolium multiflorum Lam.): 5 (Herbicidal ratio of 90% or more (almost completely withered)); E herbicidal effect grade (Cyperus difformis): 5 (Herbicidal ratio of 90% or more (almost completely withered)); D (Leptochloa chinensis) herbicidal effect grade (Leptochloa chinensis): 5 (Herbicidal ratio of 90% or more (almost completely withered)); Effect on crop grade, f: beet (beet): 0 (Herbicidal ratio of 5% or lower (almost no effect)); L: Apera spica-venti, herbicidal effect grade (Apera spica-venti): 5 (Herbicidal ratio of 90% or more (almost completely withered))
3 | CON=C(C)CC1CC(OC(=O)c2cnoc2C2CC2)=C(c2c(C)cc(C)cc2C)C1=O (stereo not shown) [1-103] | 0 (Herbicidal ratio of 5% or lower (almost no effect)) | 3 (Herbicidal ratio of 40% or higher and lower than 70%) | 1 (Herbicidal ratio of 5% or higher and lower than 20%) | 0 (Herbicidal ratio of 5% or lower (almost no effect)) | 2 (Herbicidal ratio of 20% or higher and lower than 40%) | 5 (Herbicidal ratio of 90% or more (almost completely withered)) | 5 (Herbicidal ratio of 90% or more (almost completely withered)) | 5 (Herbicidal ratio of 90% or more (almost completely withered)) | 2 (Herbicidal ratio of 20% or higher and lower than 40%) | 5 (Herbicidal ratio of 90% or more (almost completely withered)) | 4 (Herbicidal ratio of 70% or higher and lower than 90%) | 4 (Herbicidal ratio of 70% or higher and lower than 90%) | 5 (Herbicidal ratio of 90% or more (almost completely withered)) | 5 (Herbicidal ratio of 90% or more (almost completely withered)) | 5 (Herbicidal ratio of 90% or more (almost completely withered)) | 5 (Herbicidal ratio of 90% or more (almost completely withered)) | 5 (Herbicidal ratio of 90% or more (almost completely withered)) | 0 (Herbicidal ratio of 5% or lower (almost no effect)) | 5 (Herbicidal ratio of 90% or more (almost completely withered)) | – | –
4 | CC(CC1CC(O)=C(c2c(C)cc(-c3ccc(Cl)cc3)cc2C)C1=O)=NOCC(F)(F)F (stereo not shown) [9-024] | – | – | – | – | – | – | – | – | – | – | – | – | – | – | – | – | – | – | – | 0 (Herbicidal ratio of 5% or lower (almost no effect)) | Effect on crop grade, g: rapeseed (rapeseed): 0 (Herbicidal ratio of 5% or lower (almost no effect)); C (Monochoria vaginalis) herbicidal effect grade (Monochoria vaginalis): 2 (Herbicidal ratio of 20% or higher and lower than 40%); Herbicidal effect grade, Q: Galium spurium (Galium spurium): 0 (Herbicidal ratio of 5% or lower (almost no effect)); P: Stellaria media, herbicidal effect grade (Stellaria media): 4 (Herbicidal ratio of 70% or higher and lower than 90%); e: wheat, effect on crop grade (wheat [2]): 3 (Herbicidal ratio of 40% or higher and lower than 70%); b: directly sowed rice plant, effect on crop grade (rice plant): 5 (Herbicidal ratio of 90% or more (almost completely withered)); I: Avena fatua, herbicidal effect grade (Avena fatua): 5 (Herbicidal ratio of 90% or more (almost completely withered)); O: Chenopodium album, herbicidal effect grade (Chenopodium album [3]): 4 (Herbicidal ratio of 70% or higher and lower than 90%); Herbicidal effect grade, N: Amaranthus retroflexus (Amaranthus retroflexus): 3 (Herbicidal ratio of 40% or higher and lower than 70%); M: Abutilon theophrasti, herbicidal effect grade (Abutilon theophrasti): 3 (Herbicidal ratio of 40% or higher and lower than 70%); Effect on crop grade, e: wheat (wheat [4]): 2 (Herbicidal ratio of 20% or higher and lower than 40%); Effect on crop grade, b: directly sowed rice plant (rice): 5 (Herbicidal ratio of 90% or more (almost completely withered)); A (Echinochloa oryzacola Vasing.) herbicidal effect grade [5]: 5 (Herbicidal ratio of 90% or more (almost completely withered)); Herbicidal effect grade, K: Lolium multiflorum Lam. (Lolium multiflorum Lam.): 5 (Herbicidal ratio of 90% or more (almost completely withered)); E herbicidal effect grade (Cyperus difformis): 5 (Herbicidal ratio of 90% or more (almost completely withered)); D (Leptochloa chinensis) herbicidal effect grade (Leptochloa chinensis): 5 (Herbicidal ratio of 90% or more (almost completely withered)); Effect on crop grade, f: beet (beet): 0 (Herbicidal ratio of 5% or lower (almost no effect)); L: Apera spica-venti, herbicidal effect grade (Apera spica-venti): 5 (Herbicidal ratio of 90% or more (almost completely withered))
